Reference: patent publication US11230535B2, “CFTR regulators and methods of use thereof” (THE REGENTS OF THE UNIVERSITY OF CALIFORNIA, priority 2015, dated 2022)
“Also recorded” adds a separate entry of the source. Where two headings read alike, the source gives them in different places. Positions of bridges follow the written chain, without caps; N, C: chain ends. Residues, ends and D or L forms follow the SMILES beside them.

What was measured:
rat liver microsomes = test: In vitro metabolic stability in rat liver microsomes; assay type: in vitro ADME; conditions: NADPH
Protocol: In vitro metabolic stability. Compounds (each 5 μM) were incubated for specified times at 37° C. with rat liver microsomes (1 mg/ml; Sigma-Aldrich) in potassium phosphate buffer containing 1 mM NADPH, as described^14.

human wild-type CFTR [1] = target: T1, human wild-type CFTR (Homo sapiens, UniProt P13569); test: Cell-based plate reader (YFP iodide influx) assay of CFTR function; set-up: expressed in transfected cells; host or cells: Fischer rat thyroid (FRT) cells stably co-expressing YFP-H148Q
Protocol: The initiate rate of I^− influx was computed by determined using exponential regression. All compound plates contained negative controls (DMSO vehicle) and positive controls (20 μM forskolin).
High-throughput screening. […] The initiate rate of I^− influx was computed by determined using exponential regression. All compound plates contained negative controls (DMSO vehicle) and positive controls ([…] forskolin).
Platereader assays of chloride channel function. CFTR activity was assayed as described. […] I^− influx was measured in a plate reader with initial baseline read for 2 s and then for 12 s after rapid addition of an I^−-containing solution. TMEM16A activity was assayed similarly as described using FRT cells co-expressing YFP and TMEM16A. Activity of non-TMEM16A CaCC was assayed as described in HT-29 cells expressing YFP. In each assay initial rates of I^− influx were computed as a linear measure of channel function.

mice = test: Tear secretion / tear volume in mice (phenol red thread); assay type: in vivo, mouse
Protocol: (§1) To measure unstimulated tear production, phenol red threads (Zone-Quick, Oasis Medical, Glendora, Calif., USA) were placed for 10 s in the lateral canthi of isofluorane-anesthetized mice using jewelers' forceps. Tear volume was measured as the length of thread wetting, as visualized under a dissecting microscope. Serial measurements were used to evaluate compound pharmacodynamics after application of 2-μL drops of compound formulations (50-100 μM compound in PBS containing 0.5% polysorbate and 0.5% DMSO) comparing to vehicle.
as §1, with “Tear secretion. To” for “To”, “2-[…]L” for “2-μL”
Tear volume. Tear volume was measured using phenol red threads (Zone-Quick, Oasis Medical, Glendora, Calif.) as described. Threads were placed for 10 s in the lateral canthi of isofluorane-anesthetized mice using jewelers' forceps. Tear volume was determined from the length of thread wetting as visualized under a dissecting microscope. Serial measurements were done to evaluate compound pharmacodynamics after topical application of a single, 2.5-μL drop of ophthalmic formulation containing 0-100 μM of 1 or 12 in Ringer's solution with 0.3% carboxymethylcellulose (high viscosity, VWR, Radnor, Pa.), 0.015% benzalkonium chloride preservative, and 1% DMSO. Both eyes in each mouse received the same treatment to control for potential contralateral effects of a given treatment.

loperamide-treated mice = test: Loperamide-induced mouse model of constipation (3-h stool weight, pellet number, water content); conditions: for stool output response as % of the maximal CFTRact-J027 response: oral 0.5 mg/kg, loperamide-treated mice
constipation patients = conditions: cited from earlier work
human wild-type CFTR [2] = target: T1, human wild-type CFTR; test: Short-circuit current in FRT cells expressing wild-type human CFTR; assay type: cell-based; set-up: expressed in transfected cells; conditions: 100% = 20 μM forskolin
Protocol: Short-circuit current was measured in FRT cells stably expressing wild-type human CFTR cultured on porous filters as described. The basolateral solution contained 130 mM NaCl, 2.7 mM KCl, 1.5 mM KH2PO4, 1 mM CaCl2, 0.5 mM MgCl2, 10 mM glucose, and 10 mM Na-HEPES (pH 7.3, 37° C.). In the apical solution 65 mM NaCl was replaced by Na gluconate, and CaCl2 was increased to 2 mM, and the basolateral membrane was permeabilized with 250 μg/ml amphotericin B. Short-circuit current was measured in freshly harvested adult mouse colon at 37° C. using symmetrical Krebs-bicarbonate buffer.
(§2) Fischer rat thyroid (FRT) cells stably expressing wild-type human CFTR were cultured on Snapwell inserts (Corning Costar, Corning N.Y., USA) for short-circuit current (Isc) measurements. After 6-9 days in culture, when the transepithelial resistance was >1000 Ω/cm^2, the inserts were mounted in an Ussing chamber system (World Precision Instruments, Sarasota, Fla., USA). The basolateral solution contained 130 mM NaCl, 2.7 mM KCl, 1.5 mM KH2PO4, 1 mM CaCl2, 0.5 mM MgCl2, 10 mM glucose, and 10 mM Na-HEPES (pH 7.3). In the apical bathing solution, 65 mM NaCl was replaced by Na gluconate, and CaCl2 was increased to 2 mM. Both solutions were bubbled with air and maintained at 37° C. The basolateral membrane was permeabilized with 250 μg/ml amphotericin B (26, 27). Hemichambers were connected to a DVC-1000 voltage clamp via Ag/AgCl electrodes and 3 M KCl agar bridges for Isc recording.
Short-circuit current measurement. Short-circuit current was measured in FRT cells stably expressing wild-type human CFTR cultured on porous filters as described. The basolateral solution contained 130 mM NaCl, 2.7 mM KCl, 1.5 mM KH2PO4, 1 mM CaCl2, 0.5 mM MgCl2, 10 mM glucose, and 10 mM Na-HEPES (pH 7.3, 37° C.). In the apical solution 65 mM NaCl was replaced by Na gluconate, and CaCl2 was increased to 2 mM, and the basolateral membrane was permeabilized with 250 μg/ml amphotericin B. Short-circuit current was measured in freshly harvested adult mouse colon at 37° C. using symmetrical Krebs-bicarbonate buffer.
as §2, with “Short-circuit current. Fischer” for “Fischer”
Short-circuit current measurement. Short-circuit current measurements were done as described. Briefly, Snapwell (Corning Costar, Corning, N.Y.) inserts containing CFTR-expressing FRT cells or human bronchial epithelial cells were mounted in Ussing chambers (Physiological Instruments, San Diego, Calif.). For FRT cells the hemichambers were filled with 5 ml of HCO3^−-buffered solution (basolateral) and half-Cl^− solution (apical), and the basolateral membrane was permeabilized with 250 μg/ml amphotericin B. Symmetrical HCO3^−-buffered solutions were used for human bronchial epithelial cells. Solutions were bubbled with 95% O2/5% CO2 and maintained at 37° C., and short-circuit current was measured on a DVC-1000 voltage clamp (World Precision Instruments Inc., Sarasota, Fla.) using Ag/AgCl electrodes and 3 M KCl agar bridges.

[3] = test system: CFTR activity at the ocular surface; test: Ocular surface potential difference (PD) in living mice; assay type: in vivo, mouse; conditions: CF mice lacking functional CFTR
Protocol: (§3) Open-circuit transepithelial PD were measured continuously in anesthetized mice in response to serial perfusions of different solutions over the ocular surface, as described (21). Mice were anesthetized with Avertin (2,2,2-tribromoethanol, 125 mg/kg intraperitoneal, Sigma-Aldrich, St. Louis, Mo., USA), and core temperature was maintained at 37° C. using a heating pad. Eyes were oriented with the cornea and conjunctiva facing upward and exposed by retracting the eyelid with cross-action forceps. Solutions were isosmolar (320±10 mOsM; compositions provided in ref. 21) and contained 10μ[…] Qindomethacin to prevent CFTR activation by prostaglandins. The ocular surface was perfused at 6 mL/min through plastic tubing using a multireservoir gravity pinch-valve system (ALA Scientific, Westbury, N.Y., USA) and variable-flow peristaltic pump (medium flow model; Fisher Scientific, Fair Lawn, N.J., USA). A probe catheter was fixed 1 mm above the cornea using a micropositioner and a suction cannula was positioned 3 mm from the orbit. The measuring electrode was in contact to the perfusion catheter and connected to a high-impedance voltmeter (IsoMilivolt Meter; WPI). The reference electrode was grounded via a winged 21-gauge needle filled with isosmolar saline, and inserted subcutaneously in the abdomen. Measuring and reference electrodes consisted of Ag/AgCl with 3 M KCl agar bridges.
An open-circuit potential difference (PD) method developed in our lab was used to evaluate compound activity at the ocular surface in vivo, as depicted in FIG. 3A (21). Cl^− channel function was quantified by measuring PD during continuous perfusion of the ocular surface with a series of solutions that imposed a transepithelial Cl^− gradient and contained various channel agonists and/or inhibitors. The ocular surface was first perfused with isosmolar saline to record the baseline PD. Amiloride was then added to the perfusate, followed by exchange to a low Cl^− solution in which Cl^− with an impermeant anion, gluconate. These maneuvers allow for direct visualization of CFTR activation in response to addition of candidate CFTR activators.
as §3, with “Ocular surface potential difference measurements. Open-circuit” for “Open-circuit”, “indomethacin” for “Qindomethacin”, “Measuring and reference electrodes consisted of Ag/AgCl with 3 M KCl agar bridges.” left out

T1 sequence (P13569 whole entry): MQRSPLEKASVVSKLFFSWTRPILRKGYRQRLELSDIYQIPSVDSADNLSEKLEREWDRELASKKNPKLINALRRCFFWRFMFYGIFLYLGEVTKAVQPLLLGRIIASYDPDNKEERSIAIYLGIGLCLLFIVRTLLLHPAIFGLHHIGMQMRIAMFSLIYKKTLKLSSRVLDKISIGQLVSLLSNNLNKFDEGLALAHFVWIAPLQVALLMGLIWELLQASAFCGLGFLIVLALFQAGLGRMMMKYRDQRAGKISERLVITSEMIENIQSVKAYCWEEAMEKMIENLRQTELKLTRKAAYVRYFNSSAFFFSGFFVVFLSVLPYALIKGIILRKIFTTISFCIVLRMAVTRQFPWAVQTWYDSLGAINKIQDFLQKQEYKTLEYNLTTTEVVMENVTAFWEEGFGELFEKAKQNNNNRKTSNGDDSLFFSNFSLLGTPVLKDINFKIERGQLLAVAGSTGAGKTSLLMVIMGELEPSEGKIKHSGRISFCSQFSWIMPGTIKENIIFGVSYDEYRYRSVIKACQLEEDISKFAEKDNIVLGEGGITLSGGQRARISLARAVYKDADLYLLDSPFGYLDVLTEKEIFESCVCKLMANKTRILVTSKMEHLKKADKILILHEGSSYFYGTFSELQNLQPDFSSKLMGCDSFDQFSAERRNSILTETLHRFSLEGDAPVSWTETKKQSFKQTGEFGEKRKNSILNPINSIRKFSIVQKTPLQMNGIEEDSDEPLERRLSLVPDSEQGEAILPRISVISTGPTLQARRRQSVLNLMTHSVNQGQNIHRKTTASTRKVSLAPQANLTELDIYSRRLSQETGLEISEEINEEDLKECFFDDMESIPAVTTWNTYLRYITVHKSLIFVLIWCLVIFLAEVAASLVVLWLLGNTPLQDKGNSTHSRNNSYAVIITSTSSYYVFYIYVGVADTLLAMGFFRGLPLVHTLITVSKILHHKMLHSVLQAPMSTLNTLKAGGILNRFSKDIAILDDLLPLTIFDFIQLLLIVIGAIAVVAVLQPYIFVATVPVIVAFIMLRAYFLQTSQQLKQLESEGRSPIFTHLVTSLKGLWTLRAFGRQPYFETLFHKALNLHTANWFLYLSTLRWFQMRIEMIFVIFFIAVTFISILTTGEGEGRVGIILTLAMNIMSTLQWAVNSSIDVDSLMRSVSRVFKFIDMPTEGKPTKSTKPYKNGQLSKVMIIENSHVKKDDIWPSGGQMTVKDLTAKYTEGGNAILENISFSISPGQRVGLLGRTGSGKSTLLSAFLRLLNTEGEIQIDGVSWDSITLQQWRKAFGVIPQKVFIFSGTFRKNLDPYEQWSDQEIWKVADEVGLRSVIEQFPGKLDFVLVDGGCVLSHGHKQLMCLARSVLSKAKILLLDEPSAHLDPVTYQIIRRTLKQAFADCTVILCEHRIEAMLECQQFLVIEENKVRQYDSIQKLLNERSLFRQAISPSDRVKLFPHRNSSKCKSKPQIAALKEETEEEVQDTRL

CCN(CC)c1nc(Nc2ccc3ncoc3c2)nc(OC(C(F)(F)F)C(F)(F)F)n1 [6j, N′-(1,3-Benzoxazol-6-yl)-N,N-diethyl-6-[(1,1,1,3,3,3-hexafluoropropan-2-yl)oxy]-1,3,5-triazine-2,4-diamine]
original compound remaining at 60 min (rat liver microsomes; 5 μM, rat hepatic microsomes): ~60%
metabolic stability in hepatic microsomes, in words (rat liver microsomes): metabolized slowly; also recorded: substantially greater in vitro metabolic stability than 1 or 12
EC50 (human wild-type CFTR [1]; bicyclic aniline analogs, read-out: EC50): 0.15 µM

cholera toxin
basal tear secretion at 30 min (mice; mouse, in vivo): substantially increased
effect on tear secretion after 2 hours (mice; mouse, in vivo): undetectable

Cn1c(=O)c(-c2cc([N+](=O)[O-])ccc2N)nc2ccccc21 [inactive chemical analog of CFTRact-J027, reference compound]
effect of inactive analog on stool parameters (loperamide-treated mice; wildtype loperamide-treated mice): nor was an inactive chemical analog of CFTRact-J027 effective

CC(C)Cn1c(=O)n(C)c(=O)c2[nH]cnc21 [IBMX, 3-isobutyl-1-methylxanthine, reference compound]
basal tear secretion at 30 min (mice; single topical dose, 30 min): substantially increased
effect on tear secretion after 2 hours (mice; single topical dose, after 2 hours): undetectable

CCCCC(F)(F)[C@@]1(O)CC[C@H]2[C@@H](CC(=O)[C@@H]2CCCCCCC(=O)O)O1 [lubiprostone, reference compound]
stool output response as % of the maximal CFTRact-J027 response (loperamide-treated mice): 50%
patients in whom the drug was effective (constipation patients; IBS-C patients): ~13%

CNc1nc(Nc2ccc([N+](=O)[O-])cc2)nc(OCC(F)(F)C(F)F)n1 [K032]
CFTR activation, Vmax (human wild-type CFTR [2]): ~50 % Vmax
change in ocular surface PD in CF mice [3]: no changes in PD
% Activation (human wild-type CFTR [1]; commercial analogs, FRT cells with YFP and wildtype CFTR, 125 nM forskolin): 105%
EC50 (human wild-type CFTR [1]; commercial analogs, read-out: EC50 (full-dose response assay, compounds >80% activation)): 0.07 µM

C[C@@H]1NC(=O)[C@@H]2CCCN2C(=O)[C@H](CC(N)=O)NC(=O)[C@@H]2CSSC[C@H](N)C(=O)N[C@H]3CSSC[C@H](NC1=O)C(=O)N[C@@H]([C@@H](C)O)C(=O)NCC(=O)N[C@H](C(=O)N[C@@H](Cc1ccc(O)cc1)C(=O)O)CSSC[C@H](NC(=O)[C@H](Cc1ccc(O)cc1)NC(=O)[C@H](CCC(=O)O)NC3=O)C(=O)N2 [linaclotide, reference compound] (H-CCEYCCNPACTGCY-OH; disulfide 1-6, 2-10, 5-13)
stool output response as % of the maximal CFTRact-J027 response (loperamide-treated mice): 35%
patients in whom the drug was effective (constipation patients; chronic constipation patients): ~20%
